Laboratory results published in US20240262842A1, “SMALL MOLECULE INHIBITORS OF KRAS G12C MUTANT” (Merck Sharp & Dohme LLC, priority 2021, published 2024).
Like-named read-outs stand apart in the source and are kept apart here.

Assays:
[1] = tested on: MIA PaCa-2 cells; assay: Growth inhibition activity on KRAS-G12C mutant cell line (CellTiter-Glo 3D); assay type: cell-based, human; conditions: MIA PaCa-2, 3-day culture with compound
How it was run: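 MIA PaCa-2 cells in RPMI1640 with 10% FBS, U-bottom wells, cultured 1 day before compound (0.2% DMSO final), then 3 days at 37 °C, 5% CO2. Viability by CellTiter-Glo 3D luminescence; growth inhibition versus untreated wells gives IC50 (nM).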

[2] = target: T1, interaction between GMPPNP-bound recombinant K-Ras4B G12C mutant protein and cRAF RAS-binding domain (cRAF-RBD) (Homo sapiens, UniProt P01116, G12C); assay: Inhibitory activity on interaction between KRAS G12C and cRAF (Alpha technology)
T1 construct: His-tag (N)
How it was run: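 His-tagged K-Ras4B G12C (aa 1-169), GMPPNP-loaded, preincubated with compound 1 h at 25° C in pH 7.5 Tris buffer with MgCl2, TCEP, Tween 20. cRAF-RBD (aa 50-132) and Alpha reagents then added for 1.5 h; Alpha signal normalised to DMSO (0%) and GDP-bound KRAS (100%); IC50 from dose titration.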

[3] = GMPPNP-bound KRAS G12C incubated with compound 25° C. 1 hour, Table 2-1, read-out: IC50
[4] = Homo sapiens, MIA PaCa-2, 72 h, Table 3-1
[5] = Homo sapiens, MIA PaCa-2, 72 h, Table 3
[6] = IC50, GMPPNP-bound KRAS G12C incubated with compound 25° C. 1 hour, Table 2

T1 sequence (P01116 with tags, fused parts or gaps isoform P01116-2 G12C): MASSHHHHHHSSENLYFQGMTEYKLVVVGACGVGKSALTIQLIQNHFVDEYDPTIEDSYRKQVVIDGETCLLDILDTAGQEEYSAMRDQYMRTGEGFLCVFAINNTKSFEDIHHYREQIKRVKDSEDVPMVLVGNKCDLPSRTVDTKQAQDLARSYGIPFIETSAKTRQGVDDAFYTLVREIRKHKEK

SMILES: CC(O)[C@]1(C)CCCN1C/C=C/C(=O)Nc1c(F)cc(C(=O)c2cc3c4c(cccn24)-c2c(C(F)(F)F)cc4c(ncn4C)c2N(C)CC3)cc1F (single isomer, unassigned) [Example 204]
- IC50 ([1]; Table 3-1): 0.118 µM
- IC50 [2, 3]: 0.0364 µM

SMILES: CC(O)[C@]1(C)CCCN1C/C=C/C(=O)Nc1c(F)cc(C(=O)c2cc3c4c(cccn24)-c2c(C(F)(F)F)cc4c(ncn4C)c2N(C)CC3)cc1F (single isomer, unassigned) [Example 205]
- IC50 ([1]; Table 3-1): 0.00855 µM
- IC50 [2, 3]: 0.0295 µM

SMILES: CN1CCc2cc(C(=O)c3cc(F)c(NC(=O)/C=C/CN4[C@@H]5CC[C@H]4[C@H](O)C5)c(F)c3)n3cccc(c23)-c2c(C(F)(F)F)cc3c(ncn3C)c21 (single isomer, unassigned) [Example 206]
- IC50 [1, 4]: 0.0103 µM
- IC50 [2, 3]: 0.0154 µM

SMILES: CN1CCc2cc(C(=O)c3cc(F)c(NC(=O)/C=C/CN4[C@@H]5CC[C@H]4[C@H](O)C5)c(F)c3)n3cccc(c23)-c2c(C(F)(F)F)cc3c(ncn3C)c21 (single isomer, unassigned) [Example 207]
- IC50 ([1]; Table 3-1): 0.0112 µM
- IC50 [2, 3]: 0.0269 µM

SMILES: Cc1nnc2c3c(c(C(F)(F)F)cn12)-c1cccn2c(C(=O)c4cc(F)c(NC(=O)/C=C/CNC5(C)COC5)c(F)c4)cc(c12)CCN3C (single isomer, unassigned) [Example 216, (E)-N-(4-(10,13-dimethyl-7-(trifluoromethyl)-14,15-dihydro-13H-[1,2,4]-triazolo[4″,3″:1′,2′]pyrido-[3′,4′:2,3]azocino[4,5,6-hi]indolizine-2-carbonyl)-2,6-difluorophenyl)-4-((3-methyloxetan-3-yl)-amino)but-2-enamide]
- IC50 [1, 4]: 0.0233 µM
- IC50 [2, 3]: 0.0576 µM

SMILES: Cc1nnc2c3c(c(C(F)(F)F)cn12)-c1cccn2c(C(=O)c4cc(F)c(NC(=O)/C=C/CNC5(C)CC5)c(F)c4)cc(c12)CCN3C (single isomer, unassigned) [Example 223, (E)-N-(4-(10,13-dimethyl-7-(trifluoromethyl)-14,15-dihydro-13H-[1,2,4]-triazolo[4″,3″:1′,2′]-pyrido[3′,4′:2,3]azocino-[4,5,6-hi]indolizine-2-carbonyl)-2,6-difluoro-phenyl)-4-((1-methyl-cyclopropyl)amino)but-2-enamide]
- IC50 [1, 4]: 0.0237 µM
- IC50 [2, 3]: 0.0201 µM

SMILES: COCc1nc2c3c(c(OC)cc2n1C)-c1cccn2c(C(=O)c4cc(F)c(NC(=O)/C=C/CN[C@H]5CCOC5)c(F)c4)c(C)c(c12)CCN3C (single isomer, unassigned) [Example 231]
- IC50 [1, 4]: 0.0734 µM
- IC50 [2, 3]: 0.101 µM

SMILES: COc1cc2c(nc(C)n2C)c2c1-c1cc(F)cn3c(C(=O)c4cc(F)c(NC(=O)/C=C/CN[C@H]5CCOC5)c(F)c4)cc(c13)CCN2C (single isomer, unassigned) [Example 237]
- IC50 [1, 4]: 0.00277 µM
- IC50 [2, 3]: 0.0114 µM

SMILES: COc1cc2c(nc(C)n2C)c2c1-c1cc(F)cn3c(C(=O)c4cc(F)c(NC(=O)/C=C/CNC5(C)CC5)c(F)c4)cc(c13)CCN2C (single isomer, unassigned) [Example 238]
- IC50 [1, 4]: 0.0027 µM
- IC50 [2, 3]: 0.00876 µM

SMILES: Cc1cnc2c3c(c(C(F)(F)F)cn12)-c1cccn2c(C(=O)c4cc(F)c(NC(=O)/C=C/CN[C@H]5CCOC5)c(F)c4)cc(c12)CCN3C (single isomer, unassigned) [Example 242]
- IC50 [1, 4]: 0.0167 µM
- IC50 [2, 3]: 0.0178 µM

SMILES: COCCn1c(COC)nc2c3c(c(OC)cc21)-c1cccn2c(C(=O)c4cc(F)c(NC(=O)/C=C/CNC5(C)CC5)c(F)c4)cc(c12)CCN3C (single isomer, unassigned) [Example 244]
- IC50 [1, 4]: 0.01 µM
- IC50 [2, 3]: 0.0155 µM

SMILES: COCCn1c(COC)nc2c3c(c(OC)cc21)-c1cccn2c(C(=O)c4cc(F)c(NC(=O)/C=C/CN[C@H]5CCOC5)c(F)c4)cc(c12)CCN3C (single isomer, unassigned) [Example 247]
- IC50 [1, 4]: 0.0285 µM
- IC50 [2, 3]: 0.0234 µM

SMILES: CO[C@H]1CC[C@H](NC/C=C/C(=O)Nc2c(F)cc(C(=O)c3cn4c5c(cccc35)-c3c(Cl)cccc3OCCCC4)cc2F)CC1 [Example 3, (E)-N-(4-(12-chloro-4,5,6,7-tetrahydrobenzo[2,3][1,6]oxazecino[4,5,6-hi]indole-1-carbonyl)-2,6-difluorophenyl)-4-(((1,4r)-4-methoxycyclohexyl)amino)but-2-enamide]
- IC50 [1, 5]: 4.4 µM
- IC50 [2, 6]: 2.7 µM

SMILES: CO[C@H]1CC[C@H](NC/C=C/C(=O)Nc2c(F)cc(C(=O)c3cn4c5c(cccc35)-c3c(C)cccc3OCC4)cc2F)CC1 [Example 6, (E)-N-(2,6-difluoro-4-(10-methyl-4,5-dihydrobenzo[7,8][1,4]oxazocino[6,5,4-hi]indole-1-carbonyl)phenyl)-4-(((1r,4r)-4-methoxycyclohexyl)amino)but-2-enamide]
- IC50 [1, 5]: 0.67 µM
- IC50 [2, 6]: 0.16 µM

SMILES: CO[C@H]1CC[C@H](NC/C=C/C(=O)Nc2c(F)cc(C(=O)c3cn4c5c(cccc35)-c3c(F)cccc3OCC4)cc2F)CC1 [Example 7]
- IC50 [1, 5]: 1.1 µM
- IC50 [2, 6]: 0.84 µM

SMILES: CO[C@H]1CC[C@H](NC/C=C/C(=O)Nc2c(F)cc(C(=O)c3cn4c5c(cccc35)-c3c(Cl)cc(N5CCCC5=O)cc3OCC4)cc2F)CC1 [Example 8, (E)-N-(4-(10-chloro-8-(2-oxopyrrolidin-1-yl)-4,5-dihydrobenzo[7,8][1,4]oxazocino[6,5,4-hi]indole-1-carbonyl)-2,6-difluorophenyl)-4-(((1r,4t)-4-methoxycyclohexyl)amino)but-2-enamide]
- IC50 [1, 5]: 0.16 µM
- IC50 [2, 6]: 0.15 µM

SMILES: CO[C@H]1CC[C@H](NC/C=C/C(=O)Nc2c(F)cc(C(=O)c3cn4c5c(cccc35)-c3c(ccc(C#N)c3Cl)OCC4)cc2F)CC1 [Example 9, (E)-N-(4-(10-chloro-9-cyano-4,5-dihydrobenzo[7,8][1:4]oxazocino[6,5,4-hi]indole-1-9 carbonyl)-2,6-difluorophenyl)-4-(((1,4r)-4-methoxycyclohexyl)amino)but-2-enamide]
- IC50 [1, 5]: 0.76 µM
- IC50 [2, 6]: 1.5 µM

SMILES: COc1cccc2c1-c1cccc3c(C(=O)c4cc(F)c(NC(=O)/C=C/CN[C@H]5CC[C@H](OC)CC5)c(F)c4)cn(c13)CCO2 [Example 10, (E)-N-(2,6-difluoro-4-(10-methoxy-4,5-dihydrobenzo[7,8][1,4]oxazocino[6,5,4-hi]indole-1-carbonyl)phenyl)-4-(((1,4r)-4-methoxycyclohexyl)amino)but-2-enamide]
- IC50 [1, 5]: 0.23 µM
- IC50 [2, 6]: 0.15 µM

SMILES: Cc1cc2c(nc(C)n2C)c2c1-c1cccc3c(C(=O)c4cc(F)c(NC(=O)/C=C/CNC(C)(C)C)c(F)c4)cn(c13)CCO2 [Example 13, (E)-4-(tert-butylamino)-N-(2,6-difluoro-4-(6,8,9-trimethyl-12,13-dihydro-SH-imidazo[4″,5″:3′,4′]benzo[1′,2:7,8][1,4]oxazocino[6,5,4-hi]indole-2-carbonyl)phenyl)but-2-enamide]
- IC50 [1, 5]: 0.059 µM
- IC50 [2, 6]: 0.017 µM

SMILES: CO[C@H]1CC[C@H](NC/C=C/C(=O)Nc2c(F)cc(C(=O)c3cn4c5c(cccc35)-c3c(C)cc5c(nc(C)n5C)c3OC4)cc2F)CC1 [Example 16, (E)-N-(2,6-difluoro-4-(2,3,5-trimethyl-3H,12H-imidazo[4″,5″.3′,4′]benzo[1′,2:6,7][1,3]oxazepino[5,4,3-hi]indole-9-carbonyl)phenyl)-4-(((1r,4r)-4-methoxycyclohexyl)amino)but-2-enamide]
- IC50 [1, 5]: 0.056 µM
- IC50 [2, 6]: 0.1 µM

SMILES: CO[C@H]1CC[C@H](NC/C=C/C(=O)Nc2c(F)cc(C(=O)c3cn4c5c(cccc35)-c3c(C)cc5c(nc(C)n5C)c3OC[C@H]4C)cc2F)CC1 [Example 17, (E)-N-(2,6-difluoro-4-((R)-6,8,9,13-tetramethyl-12,13-dihydro-8H-imidazo[4″,5″;3′,4′]benzo[1′,2:7,8][1,4]oxazocino[6,5,4-hi]indole-2-carbonyl)phenyl)-4-(((1,4r)-4-methoxycyclohexyl)amino)but-2-enamide]
- IC50 [1, 5]: 0.82 µM
- IC50 [2, 6]: 1.3 µM

SMILES: CO[C@H]1CC[C@H](NC/C=C/C(=O)Nc2c(F)cc(C(=O)c3cn4c5c(cccc35)-c3c(C)cc5c(nc(C)n5C)c3OC[C@@H]4C)cc2F)CC1 [Example 18, (E)-N-(2,6-difluoro-4-((S)-6,8,9,13-tetramethyl-12,13-dihydro-8H-imidazo[4″,5″:3′,4]benzo[1′,2′:7,8][1,4]oxazocino[6,5,4-hi]indole-2-carbonyl)phenyl)-4-(((1,4r)-4-methoxycyclohexyl)amino)but-2-enamide]
- IC50 [1, 5]: 0.021 µM
- IC50 [2, 6]: 0.019 µM

SMILES: CO[C@H]1CC[C@H](NC/C=C/C(=O)Nc2c(F)cc(C(=O)c3cn4c5c(cccc35)-c3c(C)cc5c(nc(C)n5C)c3O[C@H](C)C4)cc2F)CC1 [Example 19, (E)-N-(2,6-difluoro-4-((R)-6,8,9,12-tetramethy 1-12,13-dihydro-8H-imidazo[4″,5″:3′,4′]benzo[1′,2′:7,8][1,4]oxazocino[6,5,4-hi]indole-2-carbonyl)phenyl)-4-(((1,4r)-4-methoxycyclohexyl)amino)but-2-enamide]
- IC50 [1, 5]: 3.3 µM
- IC50 [2, 6]: > 6.7 µM

SMILES: CO[C@H]1CC[C@H](NC/C=C/C(=O)Nc2c(F)cc(C(=O)c3cn4c5c(cccc35)-c3c(C)cc5c(nc(C)n5C)c3OC[C@@H](C)C4)cc2F)CC1 [Example 22, (E)-N-(2,6-difluoro-4-((S)-6,8,9,13-tetramethyl-13,14-dihydro-8H, 12H-imidazo[4″,5″:3′,4′]benzo[1′,248,9][1,5]oxazonino[7,6,5-hi]indole-2-carbonyl)phenyl)-4-(((1,4r)-4-methoxycyclohexyl)amino)but-2-enamide]
- IC50 [1, 5]: 0.1 µM
- IC50 [2, 6]: 0.1 µM
